Data set [1] is described as follows: Pharmacokinetics assay in rats. It counts as in vivo, SD rats. The conditions noted are these: rat; for AUC: read-out: Area under curve AUC; for half-life: read-out: Half-life T1/2 (converted). The protocol: Rats were used as test animals. The drug concentration in plasma at different time points was determined by LC/MS/MS method after intravenous administration or intragastrical administration of the compound of the present invention to rats. The pharmacokinetic behavior of the compound of the present invention was studied and evaluated in rats.
The atropisomer with a RT of 1.495 minutes in Examples 3 and 4, compounds of Example 17, Example 41 and Example 43.
Healthy male SD rats (6-8 weeks old), 3 rats per group.
Intravenous administration: A certain amount of the test compound was weighed, to which 10% by volume of N,N-dimethylacetamide, 33% by volume of triethylene glycol and 57% by volume of water were added to prepare a 1 mg/mL colorless, clear and transparent solution;
Intragastrical administration: A certain amount of the test compound was weighed, to which 0.5% by mass of hypromellose, 0.1% by volume of Tween 80 and 99.4% by volume of water were added to prepare a 1 mg/mL white suspension.
After an overnight fast, the SD rats were intravenously administered the test compound at an administration dose of 1 mg/kg, or intragastrically administered the test compound at an administration dose of 5 mg/kg.
The rats were intravenously administered the compound of the present invention. 0.2 ml of blood was taken from the jugular vein at 0.083, 0.25, 0.5, 1, 2, 4, 8 and 24 hours after the administration. The samples were placed in tubes containing EDTA-K2, and centrifuged at 4000 rpm and 4° C. for 5 minutes to separate the blood plasma. The plasma samples were stored at −75° C.
Or, the rats were intragastrically administered the compound of the present invention. 0.2 ml of blood was taken from the jugular vein at 0.25, 0.5, 1, 2, 4, 8 and 24 hours after the administration. The samples were placed in tubes containing EDTA-K2, and centrifuged at 4000 rpm and 4° C. for 5 minutes to separate the blood plasma. The plasma samples were stored at −75° C.
The content of the test compound in the plasma of rat after intragastrical administration of the test compound at different concentrations was determined: 50 μL of rat plasma at each time after administration was taken, to which 200 μL of a solution (50 ng/mL) of internal standard dexamethasone in acetonitrile was added. The plasma was vortex-mixed for 30 seconds, and centrifuged at 4700 rpm and 4° C. for 15 minutes. The supernatant was taken from the plasma samples, and a three-fold dilution was carried out by adding water. 2.0 μL of the supernatant was used for LC/MS/MS analysis.

Data set [2] has as its system KYSE-520 cells. In words: KYSE-520 cell proliferation experiment (CellTiter-Glo, 7 days). Format: cell-based. The conditions noted are these: Homo sapiens. As for the experimental part: The treated cell plate was incubated at 37° C., 5% CO2 for 7 days. CellTiter-Glo (Promega, G7573) was used to determine the number of viable cells in each well of the treated plate. 100 μL of the detection reagent was added to each well, and the plate was incubated at room temperature for 10 minutes. Then, the […] in each well was measured with Envision plate reader (PerkinElmer). […] The IC50 value was further calculated as the compound concentration required for 50% proliferation inhibition in the best-fit curve with […].
(In general: ATP-based viability assays read luminescence as a measure of living cells.)

In data set [3] the target is T1, SHP2 wild-type phosphatase (recombinantly expressed full-length SHP2, aa 1-593) (Homo sapiens, UniProt Q06124).
T1 sequence (Q06124 1-593): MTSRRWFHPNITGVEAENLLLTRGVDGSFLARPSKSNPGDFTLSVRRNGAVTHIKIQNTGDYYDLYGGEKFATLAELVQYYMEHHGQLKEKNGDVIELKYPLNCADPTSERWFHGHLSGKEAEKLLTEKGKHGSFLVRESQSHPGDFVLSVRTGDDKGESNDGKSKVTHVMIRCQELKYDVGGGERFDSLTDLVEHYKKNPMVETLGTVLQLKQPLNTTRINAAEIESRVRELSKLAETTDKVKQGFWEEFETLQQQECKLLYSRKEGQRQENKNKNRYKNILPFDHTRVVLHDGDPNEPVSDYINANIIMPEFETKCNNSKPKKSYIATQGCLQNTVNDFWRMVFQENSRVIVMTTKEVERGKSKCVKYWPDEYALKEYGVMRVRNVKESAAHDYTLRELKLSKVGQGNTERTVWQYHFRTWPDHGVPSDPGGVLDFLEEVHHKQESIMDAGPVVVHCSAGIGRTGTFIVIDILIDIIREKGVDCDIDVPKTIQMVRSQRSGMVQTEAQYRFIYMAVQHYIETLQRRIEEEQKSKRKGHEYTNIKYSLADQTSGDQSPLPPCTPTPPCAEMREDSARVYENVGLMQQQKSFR
Nature of the data set: In vitro activity on SHP2 wild-type phosphatase (DiFMUP fluorescence).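 Also: enzyme preincubated at room temperature, then DiFMUP reaction run at room temperature and halted with SDS, potency derived from a logistic curve fit.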 The conditions noted are these: wild-type full-length SHP2, activated polypeptide IRS1 0.5 nM, DiFMUP 30 μM.
Procedure: 0.2 nM recombinantly expressed full-length SHP2 (aa 1-593), 0.5 nM activated polypeptide IRS1 with double phosphorylation sites (sequence: H2N-LN(pY)IDLDLY(dPEG8)LST(pY)ASINFQK-amide) and a series of concentrations of the test compound (final concentrations were 1 μM, 0.3 μM, 0.1 μM, 0.03 μM, 0.01 μM, 0.003 μM, 0.001 μM, 0.0003 μM, 0.0001 μM, 0.00003 μM) were added to the phosphatase reaction solution (60 mM HEPES, pH 7.5 0.005% Brij-35, 75 mM NaCl, 75 mM KCl, 1 mM EDTA, 5 mM DTT). The reaction solution was shaked (350 rpm) at room temperature for 30 minutes. The reaction substrate DiFMUP with a final concentration of 30 μM was added, and the reaction solution was reacted at room temperature for 30 minutes. The phosphatase reaction was stopped by adding 5 μL of stop solution (60 mM HEPES, pH 7.5, 0.2% SDS). Ex358 nm/Em455 fluorescence value was read on the fluorescence plate reader MD SpectraMax.
The IC50 value of the compound was calculated using the four-parameter logit method. In the following formula, x represents the logarithmic form of the compound concentration, and F(x) represents the effect value (the inhibition rate of cell proliferation under the given concentration condition): F(x)=((A−D)/(1+((x/C)^B)))+D. A, B, C and D are four parameters. Different concentrations correspond to different inhibition rates, based on which an inverse curve was plotted, and the IC50 of the inhibitor was calculated from the curve. The IC50 of the compound was calculated with Primer premier 6.0.

Data set [4] concerns p-ERK in KYSE-520 cells. In words: Determination of p-ERK in KYSE-520 cells (HTRF). Format: cell-based. The conditions noted are these: Homo sapiens, KYSE-520, 2 h. The protocol:
KYSE-520 cells (Nanjing Cobioer Biosciences CO., Ltd.) in the logarithmic growth phase were inoculated (30,000 cells/well) in 1640 medium containing 10% of FBS, and adhered in a 96-well plate overnight (5% CO2, 37° C.). […] The cell culture was stopped with cell lysate. The level of phosphorylated ERK in KYSE-520 cells was determined by a method based on homogeneous time-resolved fluorescence HTRF (Cisbio, 64ERKPEG). The fluorescence values (Ex337 nm/Em625/665 nm) were read on the compatible HTRF reader (MD SpectraMax).
A general note: Time-resolved FRET reads energy transfer from a long-lived donor to a nearby acceptor.

Structures are written as SMILES. Like-named read-outs stand apart in the source and are kept apart here.

For orientation: AUC means the area under the concentration-time curve, a measure of exposure. As a reminder, the clearance is the volume of plasma or blood freed of the substance per unit of time. The bioavailability is dose-corrected exposure relative to a reference, in per cent. One may read the IC50 as the concentration at which inhibition is half-maximal. Consider `Cc1nc(N2CCC3(CC2)CO[C@@H](C)[C@H]3N)n2ccnc2c1-c1cccc(Cl)c1Cl` (single isomer, unassigned) [The atropisomer with a RT of 1.495 minutes in Examples 3 and 4], for which the AUC in data set [1] (male, SD, plasma, IV 1 mg/kg) turned out to be 3130 ± 300 ng·h/mL; in data set [1] (male, SD, plasma, PO 5 mg/kg), 12500 ± 2470 ng·h/mL. Moreover, the clearance in data set [1] (male, SD, plasma, IV 1 mg/kg, read-out: Clearance CL_obs) came to 5.13 ± 0.59 mL/min/kg. Moreover, the half-life in data set [1] (male, SD, plasma, IV 1 mg/kg) is 330 ± 35.4 min; in data set [1] (male, SD, plasma, PO 5 mg/kg) it was 371 ± 36.6 min. In addition, in data set [1] (male, SD, plasma, PO 5 mg/kg vs IV 1 mg/kg, read-out: Bioavailability F), the bioavailability came to 82.6 ± 17.8%. Also, in data set [1] (male, SD, plasma, PO 5 mg/kg, read-out: Maximum plasma concentration Cmax), the Cmax is 1220 ± 220 ng/mL. The “Apparent distribution volume Vss_obs” value in data set [1] (IV 1 mg/kg) worked out at 2030 ± 150 mL/kg. Further, the figures for the concentration for half-maximal inhibition (IC50) in data set [2], in data set [3] and in data set [4] were 126 nM, 0.7 nM and 39 nM, respectively.

With `N[C@@H]1CCCC12CCN(c1ncc(Sc3cccnc3C(F)(F)F)c3nccn13)CC2` [Example 16, (R)-8-(8-((2-(Trifluoromethyl)pyridin-3-yl)thio)imidazo[1,2-c]pyrimidin-5-yl)-8-azaspiro[4.5]decan-1-amine], the IC50 in data set [2] came out at 548 nM; in data set [3], 6.8 nM; in data set [4], 166 nM.

Turning to `Nc1nc(N2CCC3(CCC[C@H]3N)CC2)n2ccnc2c1-c1cccc(Cl)c1Cl` [Example 20, (R)-8-(7-Amino-8-(2,3-dichlorophenyl)imidazo[1,2-c]pyrimidin-5-yl)-8-azaspiro[4.5]decan-1-amine], the 50% inhibitory concentration (IC50) in data set [2] came out at 178 nM; in data set [3], 2 nM; in data set [4], 85.9 nM.

Consider `Nc1nc(N2CCC3(CCC[C@H]3N)CC2)n2ccnc2c1Sc1ccnc(F)c1Cl` [Example 22, (R)-8-(7-Amino-8-((3-chloro-2-fluoropyridin-4-yl)thio)imidazo[1,2-c]pyrimidin-5-yl)-8-azaspiro[4.5]decan-1-amine], for which the figures for the IC50 in data set [2], in data set [3] and in data set [4] were 102 nM, 2.1 nM and 24.5 nM, respectively.

`N[C@@H]1c2ccccc2CC12CCN(c1ncc(Sc3cccnc3C(F)(F)F)c3nccn13)CC2` [Example 31, (S)-1′-(8-((2-(Trifluoromethyl)pyridin-3-yl)thio)imidazo[1,2-c]pyrimidin-5-yl)-1,3-dihydro spiro[indene-2,4′-piperidin]-1-amine]: the results for the IC50 in data set [2], in data set [3] and in data set [4] were 52 nM, 3.4 nM and 6.5 nM, respectively.

As to `N[C@@H]1c2cccnc2CC12CCN(c1ncc(Sc3cccnc3C(F)(F)F)c3nccn13)CC2` [Example 34, (S)-1′-(8-((2-(Trifluoromethyl)pyridin-3-yl)thio)imidazo[1,2-c]pyrimidin-5-yl)-5,7-dihydro spiro[cyclopenta[b]pyridine-6,4′-piperidin]-5-amine], the values for the IC50 in data set [2], in data set [3] and in data set [4] were 92.5 nM, 2.8 nM and 5.4 nM, respectively.

For `C[C@@H]1OCC2(CCN(c3nc(N)c(-c4cccc(Cl)c4Cl)c4nccn34)CC2)[C@@H]1N` [Example 21, (3S,4S)-8-(7-Amino-8-(2,3-dichlorophenyl)imidazo[1,2-c]pyrimidin-5-yl)-3-methyl-2-oxa-8-azaspiro[4.5]decan-4-amine], the IC50 in data set [2] came out at 111 nM; in data set [3] it was 3.8 nM; in data set [4] it was 26.6 nM.

Consider `Nc1nc(N2CCC3(CC2)Cc2ccccc2[C@H]3N)n2ccnc2c1Sc1cccnc1C(F)(F)F` [Example 30, (S)-1′-(7-Amino-8-((2-(trifluoromethyl)pyridin-3-yl)thio)imidazo[1,2-c]pyrimidin-5-yl)-1,3-dihydrospiro[indene-2,4′-piperidin]-1-amine], for which the values for the IC50 in data set [2], in data set [3] and in data set [4] were 8.9 nM, 1.4 nM and 6.1 nM, respectively.

As for `CNc1nccc(Sc2cnc(N3CCC4(CC3)Cc3ncccc3[C@H]4N)n3ccnc23)c1F` [Example 37, (S)-1′-(8-((3-Fluoro-2-(methylamino)pyridin-4-yl)thio)imidazo[1,2-c]pyrimidin-5-yl)-5,7-dihydrospiro[cyclopenta[b]pyridine-6,4′-piperidin]-5-amine], the IC50 in data set [2] was 37 nM; in data set [3] it was 4 nM; in data set [4], 8.6 nM.

With `Nc1nc(N2CCC3(CCC[C@H]3N)CC2)n2ccnc2c1Sc1cccnc1C(F)(F)F` [Example 23, (R)-8-(7-Amino-8-((2-(trifluoromethyl)pyridin-3-yl)thio)imidazo[1,2-c]pyrimidin-5-yl)-8-azaspiro[4.5]decan-1-amine], the IC50 in data set [2] came out at 51.6 nM; in data set [3] it was 2.3 nM; in data set [4], 23.2 nM.

As for `Nc1nccc(Sc2cnc(N3CCC4(CC3)Cc3ccccc3[C@H]4N)n3ccnc23)c1Cl` [Example 32, (S)-1′-(8-((2-Amino-3-chloropyridin-4-yl)thio)imidazo[1,2-c]pyrimidin-5-yl)-1,3-dihydrospiro[indene-2,4′-piperidin]-1-amine], the IC50 in data set [2] stood at 12.9 nM; in data set [3] it was 1 nM; in data set [4], 2.7 nM.

With `Nc1nc(N2CCC3(CC2)Cc2ncccc2[C@H]3N)n2ccnc2c1Sc1cccnc1C(F)(F)F` [Example 28, (S)-1′-(7-Amino-8-((2-(trifluoromethyl)pyridin-3-yl)thio)imidazo[1,2-c]pyrimidin-5-yl)-5,7-dihydrospiro[cyclopenta[b]pyridine-6,4′-piperidin]-5-amine], the IC50 in data set [2] was determined as 21.6 nM; in data set [3] it was 2.6 nM; in data set [4] it was 8.6 nM.

Values taken from patent US20220073521A1, “PYRIMIDINE AND FIVE-MEMBERED NITROGEN HETEROCYCLE DERIVATIVE, PREPARATION METHOD THEREFOR, AND MEDICAL USES THEREOF” (Tuojie Biotech (Shanghai) Co., Ltd., priority 2018, published 2022).
